Experiment in all cases: NCI-60 cell line screen, 48 h
Test [1] has as its system HT29 colon.
The test system of test [2] is NCI/ADR-RES ovarian.
The test system of test [3] is TK-10 renal.
Test [4] deals with SNB-75 CNS.
Test [5] relates to UO-31 renal.
Test [6] deals with SF-295 CNS.
Test [7] concerns OVCAR-8 ovarian.
Test [8] concerns K-562 leukemia.
The test system of test [9] is COLO 205 colon.

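Growth conditions: 96-well plates. Treatment: test compound, 48 hours, 5 concentrations. Analysis: linear interpolation between bracketing concentrations; unreached endpoints set to highest concentration. At the GI50, growth is halved. The concentration for full growth arrest is given as TGI.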 Peptide text beside a SMILES is read from it. * marks the point of attachment. OSu = O=C1CCC(=O)N1O*; OBn = c1ccc(CO*)cc1; Bn = c1ccc(C*)cc1

Consider `CC(C)CC(NC(=O)C(N)CCC(=O)OCc1ccccc1)C(=O)NC(COCc1ccccc1)C(=O)NC(Cc1ccccc1)C(=O)ON1C(=O)CCC1=O` (stereo unspecified) (H-E(OBn)LS(Bn)F-OSu; configuration not given here), for which the TGI is over 100 µM in test [1]; 85.3 µM in test [2]; 73.8 µM in test [3]; over 100 µM in [4]; 59 µM in [5]; 62.7 µM in [6]. For the same compound, the TGI in test [7] is over 100 µM.

With `Clc1ccc(-c2nn3c(C45CC6CC(CC(C6)C4)C5)nnc3s2)cc1`, the TGI in [1], in test [2], in test [8], in test [3], in [4] and in test [5] was over 100 µM in each case. Besides, the TGI in test [6] and in test [9] was over 100 µM each time.

Take `COC(=O)C(N)CCCC(N)C(=O)NC(C)C(=O)NC(CCC(=O)NCCCNc1ccc([N+](=O)[O-])c2[nH]c3ccccc3c(=O)c12)C(N)=O` (stereo unspecified): the TGI in [2] came out at 25 µM; in [8], 22.6 µM; in test [3], 23.2 µM; in [4], 21.6 µM; in test [5] it was 13.8 µM; in test [6] it was 20.9 µM. For the same compound, the TGI worked out at 15.2 µM in [9] and 13.9 µM in [7].

In the case of `CCOC(=O)C12C(=O)CCN1CCc1ccccc1C2C` (stereo unspecified), the TGI in test [1], in test [2], in test [8], in test [3], in [5] and in [6] was over 100 µM each time. Moreover, the TGI in test [9] and in [7] was over 100 µM throughout.

Regarding `COc1cc(C2C3=C(N=C4SC(C(C)=O)=C(C)N42)c2ccccc2CC3)cc(OC)c1OC` (stereo unspecified), the TGI in [1] was over 100 µM; in [2], over 100 µM; in test [8], 85.2 µM; in [4], over 100 µM; in test [5], over 100 µM; in test [6], over 100 µM. For the same compound, the TGI in test [9] and in [7] was over 100 µM throughout.

`Cc1ccc(CC(=O)Nc2ccc(NC(=O)CNC(=O)/C=C/c3ccc(-c4ccccc4)cc3)cc2C(=O)c2ccccc2)cc1`: the TGI in [1] amounted to 2.99 µM; in [2] it was 29.8 µM; in [8], 10.3 µM; in [3], 5.95 µM; in test [5], 24.7 µM; in test [6], 4.86 µM. The TGI in test [9] is 32 µM; in [7], 3.27 µM.

Consider `O=c1c(S(=O)(=O)Oc2ccccc2)coc2cc(F)ccc12`, for which the TGI in test [1], in test [2], in test [8], in test [3], in [4] and in test [5] was over 100 µM in each case. In addition, the TGI in test [6] and in test [7] was over 100 µM throughout.

With `Cn1c(=O)c2[nH]c(-n3nc(-c4ccccc4)cc3N)nc2n(C)c1=O`, the TGI in test [1] was over 100 µM; in test [2], 14.2 µM; in test [8] it was over 100 µM; in [3], over 100 µM; in test [5], over 100 µM; in [6], over 100 µM. In addition, the TGI came to 88.7 µM in test [9] and 97.7 µM in test [7].

Consider `CC(C)(CN1CCCCC1)C(=O)/C=C/c1c(Cl)cccc1Cl`, for which the TGI was 2.89 µM in test [1]; 5.09 µM in [2]; 1.77 µM in [3]; 2.38 µM in [4]; 2.27 µM in test [5]; 7.05 µM in test [6]. The TGI turned out to be 3.05 µM in test [9] and 9.21 µM in [7].

With `CN(/N=C/c1ccc(Cl)c(Cl)c1)C1=NCCN1`, the TGI in test [1] is over 100 µM; in test [2] it was over 100 µM; in [8] it was over 100 µM; in test [3], over 100 µM; in [4], over 100 µM; in [6] it was 69 µM. The values for the TGI in test [9] and in test [7] were 38.9 µM and over 100 µM, respectively.

On to `COC1=CCC2=C(CCN(C(=O)C3CCC3)C2Cc2ccc(OC)c(O)c2)C1` (stereo unspecified), for which the TGI in test [1] is 43.8 µM; in [2] it was 41.4 µM; in [8], over 100 µM; in [3] it was 64.5 µM; in test [4], 35.9 µM; in test [6], 45.4 µM. For the same compound, the values for the TGI in test [9] and in test [7] were 32.1 µM and over 100 µM, respectively.

With `CCCCNCC(O)c1cc(-c2ccc(C(F)(F)F)cc2)nc(-c2ccc(C(F)(F)F)cc2)c1` (stereo unspecified), the GI50 was 1.84 µM in test [1], 2.16 µM in test [3], 1.91 µM in test [4] and 1.44 µM in test [5]. Besides, the TGI was 3.62 µM in test [1], 3.83 µM in test [3], 3.6 µM in [4] and 3.08 µM in test [5].

Take `CN(C)/C=N/S(=O)(=O)c1nn2c(C=O)c(-c3cc4ccccc4oc3=O)nc2s1`: the TGI is 2.97 µM in [1]; over 100 µM in test [2]; over 24.4 µM in [8]; 14.8 µM in test [3]; over 82.1 µM in test [4]; 4.84 µM in test [5]. In addition, the TGI in test [6] was over 100 µM; in [7] it was over 42 µM.

Consider `COC1=C(OC)C(=O)C(Cc2c(Cl)nc3n2CCS3)=C(C)C1=O`, for which the TGI was 35.6 µM in test [1]; 34.2 µM in test [2]; 39.9 µM in [8]; 32 µM in test [3]; 28.3 µM in test [5]; 30.4 µM in test [6]. Also, the TGI in test [9] worked out at 31.5 µM; in test [7], 29.8 µM.

As for `COc1cc(C)cc(OC)c1/C=C/C(=O)O`, the TGI in test [1], in [2], in [8], in test [3], in test [5] and in [6] was over 100 µM throughout. In test [7], this compound showed a TGI of over 100 µM.

In the case of `CC(C)=CCC/C(C)=C/CC/C(C)=C/CSc1ccc(Cl)cc1C(=O)O`, the TGI was determined as 37.4 µM in [1]; 64.9 µM in test [8]; 37.6 µM in test [3]; 34.3 µM in test [4]; 31.4 µM in [5]; 31.4 µM in [6]. Moreover, the TGI in test [9] amounted to 51.6 µM; in test [7], 42.1 µM.

The record behind these values is PubChem BioAssay (NCI).
